From patent publication US20240351959A1, “USE OF ETHYNYLPYRIDINE COMPOUNDS AS NITRIFICATION INHIBITORS” (BASF SE, priority 2021, published 2024)

Legend:
[1] = tested on: nitrification; experiment: % NH4-N recovery from fertilized NH4-N in soil Limburgerhof; conditions: 20° C.
Experimental: The compounds according to the invention have been further tested in terms of their % NH4—N recovery from fertilized NH4—N.
The compounds according to general formula I were tested as follows in terms of the inhibition of nitrification:
100 g soil (soil Limburgerhof with pH(CaCl2) 6.8; 73% sand, 23% silt, 4% clay, which is classified according to FAO as a sandy loam) is filled into 500 ml plastic bottles and is moistened to 50% water holding capacity. The soil is incubated at 20° C. for two weeks prior to the experiments to activate the microbial biomass. 1 ml test solution, containing the compounds of formula I or the comparative compounds in the appropriate concentration (0.1, 0.3 or 1% (w/w) of fertilized NH4—N), and 10 mg nitrogen in the form of ammoniumsulfate-N(NH4—N) is added to the soil and everything mixed well. Unfertilized controls received 1 ml pure water. Bottles are capped but loosely to allow air exchange. The bottles are then incubated at 20° C. for 14 days and 28 days.
(§1) For analysis, 300 ml of a 1% K2SO4-solution is added to the bottle containing the soil and shaken for 2 hours in a horizontal shaker at 150 rpm. Then the whole solution is filtered through a filter (Macherey-Nagel Filter MN 807%). Ammonium content is then analyzed in the filtrate using an autoanalyzer. Ammonium was quantified via an indophenol blue dye at 660 nm.
The nitrification inhibition is expressed as % of NH4—N recovery from fertilized NH4—N(100%) after subtraction of unfertilized control soil. The number of replicates is 4.
For comparison of the % NH4—N recovery of the compound of the invention, i.e. Example 4, with the comparative compounds as shown above from different trials, the standard deviation of a common treatment of all trials with DMPP (3,4-dimethylpyrazole phosphate) was calculated. As the standard deviation was low, data from different trials were pooled together to compare the average % NH4—N recovery for the compound of the invention and the comparative compounds as shown above.

[2] = tested on: nitrification; experiment: inhibition of nitrification in soil incubation (NI); conditions: soil incubated at 20° C., 14 days; for NI @ 0.1%: compound at 0.1% of nitrogen N; for NI @ 0.3%: compound at 0.3% of nitrogen N; for NI @ 1%: compound at 1% of nitrogen N
Experimental: The compounds of the invention have been tested as follows in terms of the inhibition of nitrification:
100 g soil is filled into 500 ml plastic bottles (e.g. soil sampled from the field) and is moistened to 50% water holding capacity. The soil is incubated at 20° C. for two weeks to activate the microbial biomass. 1 ml test solution, containing the compound of formula I in the appropriate concentration (usually 0.1, 0.3 or 1% of nitrogen N), or DMSO and 10 mg nitrogen in the form of ammoniumsulfate-N is added to the soil and everything mixed well. Bottles are capped but loosely to allow air exchange. The bottles are then incubated at 20° C. for 0 and 14 days.
as §1, with “Ammonium and nitrate” for “Ammonium”, “in” for “using”, “autoanalyzer” for “autoanalyzer. Ammonium was quantified via an indophenol blue dye”, “550 nm (Merck, AA11).” for “660 nm.”
The inhibition (NI® a specified concentration) is calculated as follows: […]

[3] = tested on: N2O emission; experiment: reduction of N2O emission, potted corn plants in greenhouse soil; parameters: species or system Zea mais; conditions: 100 ppm ammonium sulfate, cumulated emissions over two weeks, relative to untreated but fertilized control
Experimental: Example 2 was additionally tested in terms of the reduction of N20 emission Corn seeds (Zea mais, cultivar “Shorty”) were planted 1 seed/pot in 8 cm pots in standard greenhouse soil (mixture of peat, loam and sand) and grown in a greenhouse at 20° C. and 60% humidity. Plants were grown for ten days in a completely randomized set-up. On day 6, plants were watered but not fertilized to 50% water holding capacity then left to dry out. On day ten, the plants were separated out and each pot set onto a plant saucer designed with an inner compartment for the pot and an outer ring that is filled with water. At time 0 water with or without 100 ppm ammonium sulfate and with or without the given concentration of nitrification inhibitor (1% and 0.3%) was applied to the plant such that the water holding capacity of the soil was around 50-60%. Then a gas sampling chamber was placed over the plant saucer such that the rim fit into the ring filled with water to create a gas-tight chamber and 20 cc air from the chamber were drawn into a syringe and immediately emptied in to a Vacutainer (Labco, 12 ml volume). […] Samples were analyzed in a Shimadzu 2014 GC equipped with an ECD system. Data was calculated as the cumulated emissions over the measurement period and the % reduction of N20 emissions relative to the untreated but fertilized control was calculated.

Compound	% NH4—N recovery after 14 days ([1]; 0.1 wt.-% relative to NH4—N) [%]	% NH4—N recovery after 14 days ([1]; 0.3 wt.-% relative to NH4—N) [%]	% NH4—N recovery after 28 days ([1]; 0.3 wt.-% relative to NH4—N) [%]	% NH4—N recovery after 14 days ([1]; 1 wt.-% relative to NH4—N) [%]	% NH4—N recovery after 28 days ([1]; 1 wt.-% relative to NH4—N) [%]	NI @ 0.1% [2] [%]	NI @ 0.3% [2] [%]	NI @ 1% [2] [%]	% reduction of N2O relative to control @ 0.3% ([3]; nitrification inhibitor 0.3%) [%]	% reduction of N2O relative to control @ 1% ([3]; nitrification inhibitor 1%) [%]
C#Cc1ccc(Cl)cn1 [Example 4]	74.00	68.50	59.0	72.00	56.0					
C#Cc1ccc(Cl)nc1 [Example 3]						68	84	94		
C[Si](C)(C)C#Cc1ccccn1 [Comparative Example A]	46.50	60.30	51.2	67.80	68.1					
Clc1cccc(C(Cl)(Cl)Cl)n1 [Comparative Example, reference compound]							35	54		
C[Si](C)(C)C#Cc1ccc(Cl)cn1 [Comparative Example B]	20.94	44.40	11.1	59.90	61.0					
C#Cc1cc(Cl)ccn1 [Example 1]						46		83		
C#Cc1ccc(Cl)cn1 [Example 2]						74		76	91	97
